Measurements: PubChem BioAssay (NCI)
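Protocol summary: plate cells (96-well), add compound at 5 concentrations, incubate 48 h, interpolate endpoints linearly. TGI: total growth inhibition.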

Columns and labels:
Assay in all cases: DTP human tumour cell line panel, 48 h
[1] = test system: HOP-62 NSCLC
[2] = test system: A498 renal
[3] = test system: K-562 leukemia
[4] = test system: SNB-19 CNS
[5] = test system: CAKI-1 renal
[6] = test system: IGROV1 ovarian
[7] = test system: TK-10 renal
[8] = test system: KM12 colon
[9] = test system: HOP-92 NSCLC
[10] = test system: U251 CNS
[11] = test system: UACC-257 melanoma
[12] = test system: MOLT-4 leukemia
[13] = test system: CCRF-CEM leukemia
[14] = test system: RPMI-8226 leukemia
[15] = test system: SF-268 CNS
[16] = test system: NCI-H460 lung
[17] = test system: UO-31 renal
[18] = test system: HCT-116 colon
[19] = test system: NCI/ADR-RES ovarian

Measured: TGI

Cn1c(=O)cc2[nH]c3ccccc3n2c1=O
31.2 µM: [10]
not listed: [18] | [19]
> 100 µM: all other assays above

COC(=O)c1c(-c2cc(OC)c(OC)c(OC)c2)oc2ccccc2c1=O
not listed: [15] | [19]
> 100 µM: all other assays above

COc1ccc(OC)c(/C=C2\CCc3ccccc3C2=O)c1
> 100 µM: [5]
19.7 µM: [2]
27.5 µM: [16]
47.8 µM: [6]
20.6 µM: [18]
22.2 µM: [15]
19.6 µM: [14]
14.8 µM: [13]
14.4 µM: [10]
30.3 µM: [7]
10.8 µM: [1] | [3]
9.32 µM: [9]
12.5 µM: [8]
19.8 µM: [12]
28.9 µM: [4]

C[C@]12CC[C@H](O)CC1=CC[C@@H]1C2CC[C@]2(C)C(=O)NC(=O)CC12 (some centres undefined)
92.1 µM: [3]
89.8 µM: [14]
not listed: [19]
> 100 µM: all other assays above

CC(C)OC/N=C(/N)NC#N
61.2 µM: [14]
not listed: [13] | [19]
> 100 µM: all other assays above

CC(=O)NNc1nc(C)c(C(=O)NNC(=O)C(=O)Nc2c([N+](=O)[O-])ccc(C)c2C)s1
not listed: [19]
> 100 µM: all other assays above

CS(=O)(=O)OCCCSCCSCCCOS(C)(=O)=O
not listed: [2] | [5] | [14]
> 100 µM: all other assays above

COCN(C)c1nc(N(C)C)nc(N(C)C)n1
not listed: [19]
> 100 µM: all other assays above

Nc1cc2ncnn2c(SCC(=O)N/N=C/C(Br)=C\c2ccccc2)n1
52.7 µM: [8]
25.3 µM: [11]
87.2 µM: [1]
53.5 µM: [16]
91.8 µM: [19]
71.7 µM: [12]
> 100 µM: [3] | [4] | [18] | [13]
72.3 µM: [7]
32 µM: [17]
20.7 µM: [10]
50.1 µM: [14]
37.2 µM: [5]
24.6 µM: [6]

COC(=O)CC(C(C(=O)OC)C(=O)OC)N1C(=O)OC(c2ccccc2)C1c1ccccc1 (centres undefined)
39 µM: [5]
not listed: [19]
> 100 µM: all other assays above

ClCC[N-]CC[N-]CCCl.ClCC[N-]CC[N-]CCCl.[O-][Cl+3]([O-])([O-])O.[Zn+2]
82.3 µM: [13]
56.6 µM: [15]
> 62.3 µM: [6]
> 62.8 µM: [18]
> 71.1 µM: [7]
39.7 µM: [5]
63.2 µM: [11]
68.7 µM: [3]
> 67.3 µM: [10]
> 57.3 µM: [9]
> 72.5 µM: [17]
> 71.2 µM: [16]
not listed: [19]
> 100 µM: all other assays above

Cc1ccc(/C=C/C(=O)c2sc(-n3nc(-c4ccccc4)cc3-c3ccccc3)nc2C)cc1
not listed: [4] | [18] | [19]
> 100 µM: all other assays above

COc1c(I)c(OC)c2c(c1I)O[C@@H]1OCC[C@H]21
86 µM: [2]
56.2 µM: [16]
82.6 µM: [8]
67.1 µM: [9] | [11]
46.1 µM: [5]
66.3 µM: [17]
54.4 µM: [12]
not listed: [15] | [19]
> 100 µM: all other assays above

CCNC1=C(NC(=O)c2ccccc2)C(=O)c2ccccc2C1=O
39.7 µM: [19]
64.5 µM: [11]
not listed: [2] | [5] | [15] | [17]
> 100 µM: all other assays above

Cc1c2ccncc2c(C)c2c1[nH]c1ccc(Oc3ccccc3)cc12
> 28.4 µM: [15]
3.37 µM: [10]
9.49 µM: [8]
35.2 µM: [17]
11.4 µM: [2]
9.41 µM: [13]
13.9 µM: [9]
> 100 µM: [5]
4.01 µM: [3]
46.1 µM: [4]
42.4 µM: [6]
4.33 µM: [11]
6.44 µM: [12]
22.9 µM: [7]
4.42 µM: [1]
5.27 µM: [14]

COC(=O)c1c(C)c2c(c(C)c1C(=O)OC)-c1c(C)ccc3ccc(C)c-2c13
> 69.4 µM: [16]
not listed: [9]
> 100 µM: all other assays above

COc1cc2c(oc(=O)c3cc4cc([Si](C)(C)C)oc4c(OC)c32)c2cccc(O)c12
not listed: [19]
> 100 µM: all other assays above

COc1ccc(CCNC(=O)c2ccccc2C2c3ccc(OCc4ccccc4)cc3Oc3cc(OCc4ccccc4)ccc32)cc1OC
not listed: [9] | [13] | [16]
> 100 µM: all other assays above

N#Cc1ccc(Oc2ccccc2)cc1C#N
56.9 µM: [13]
not listed: [19]
> 100 µM: all other assays above

CC(=O)C1C(=O)C(=O)N(c2ccc([N+](=O)[O-])cc2)C1=O (centres undefined)
not listed: [2] | [3] | [14]
> 100 µM: all other assays above

O=C1c2ccccc2C(=O)c2c(NC(=O)C3CC3)ccc(NC(=O)C3CC3)c21
not listed: [5] | [9] | [13] | [15]
> 100 µM: all other assays above
